Assay results taken from US11325921B2, “Optically active crosslinked cyclic secondary amine derivative” (Sumitomo Dainippon Pharma Co., Ltd., priority 2018, dated 2022).

How the values were obtained:
[1] = target: Menin-MLL binding (His-Menin1-615 / MLL1-172-FLAG) (Homo sapiens (Human), UniProt O00255); assay: Test 1: inhibition of the Menin-MLL binding (HTRF); conditions: for Menin-MLL binding inhibition activity (in words): summary of the table
Method: Menin1-615 wherein 6× His tag and HA tag are inserted in the N-terminus, and myc tag is inserted in the C-terminus (hereinafter, referred to as His-Menin1-615), was diluted with an assay buffer (25 mmol/L HEPES, 150 mmol/L NaCl, 1 mmol/L dithiothreitol, 0.5% (w/v) Tween 80, 0.3% (w/v) BSA, 0.3% (w/v) skim milk) to adjust the final concentration Lo 30 nmol/L. The test compounds were also diluted with the assay buffer to adjust each concentration of the test compounds to 0.005 to 5 μmol/L. The prepared His-Menin1-615 and test compounds were added to a light-shielding 384-well low-volume plate (Corning, #4514) in 2 μL/well and 6 μL/well, respectively, and the plate was covered with a lid for light-shielding (Corning, r-3935), and incubated at room temperature for 3 hours. After the incubation, MLL1-172 wherein FLAG tag is inserted in the C-terminus (MLL1-172-FLAG), was separately diluted with the assay buffer to adjust the final concentration to 50 nmol/L. The prepared MLL1-172-FLAG was added to the above plate in 2 μL/well, and the plate was covered with a lid for light-shielding and incubated at room temperature for an hour.
Then, anti-6HIS-d2 antibody (cisbio, 61HISDLA) and anti-FLAGM2-K antibody (cisbio, 61FG2KLA) were diluted with an antibody dilution buffer (50 mmol/L Tris, 150 mmol/L NaCl, 800 mmol/L KF, pH 7.4) to adjust the final concentration to 1.4 μg/mL to prepare an antibody mixture. The prepared antibody mixture was added to the above plate in 10 μL/well, and the plate was covered with a lid and incubated at 4° C. for 17 to 24 hours. After the incubation, the signal was detected with RUBYstar (BMG LABTECH). The binding inhibition rate (%) at each concentration of the test compounds was calculated from the following formula, and the IC50 value was obtained, that corresponds to the concentration of the test compound at which the binding inhibition rate is 50%.

RS4; 11 cells = assay: Test 2: inhibition of cell proliferation, RS4; 11; format: cell-based; conditions: for IC50: Homo sapiens, 168 h, 11 cells, cultured 7 days, PrestoBlue; for cell proliferation inhibition activity (in words, good) / cell proliferation inhibitory activity (in words, potent): 11 and MOLM-13 cells, summary of the table; for cell proliferation inhibitory activity (in words, potent): 'especially'
Method: (§1) RS4; 11 cells were obtained from American Type Culture Collection (ATCC). The cells were cultured at 37° C. in the presence of 5% CO2 in RPMI 1640 medium containing 10% fetal bovine serum and 1% penicillin/streptomycin. MOLM-13 cells were separately obtained from DSMZ. The cells were cultured at 37° C. in the presence of 5% CO2 in RPMI 1640 medium containing 20% fetal bovine serum and 1% penicillin/streptomycin.
(§2) The cells were plated to a 96-well plate in 2000 cells/well, each test compound was added thereto to adjust the final concentration of DMSO to 0.1% of DMSO, and the cells were cultured for 7 days. After the cultivation, the cell viability was calculated with PrestoBlue™ Cell Viability Reagent (Invitrogen, A13261). The IC50 value was calculated from a survival curve, that corresponds to the concentration of the test compound at which the cell proliferation inhibition rate is 50%.

MOLM-13 cells = assay: Test 2: inhibition of cell proliferation, MOLM-13; format: cell-based; conditions: Homo sapiens, 168 h, cultured 7 days, PrestoBlue
Method: as §1, §2

[2] = test system: MEIS1 mRNA in MV4; 11 cells; assay: Test 3: inhibition of mRNA transcription, MEIS1; format: cell-based; conditions: for mrna remaining at 1 µM: Homo sapiens, MV4, 20 to 24 hours, fitted with GAPDH, read-out: mRNA at 1 μM (% control) MEIS1; for mRNA transcription inhibition activity (in words): MEIS1 and HOXA9, MV4, 1 μM, summary of the table
Method: (§3) MV4; 11 cells were obtained from American Type Culture Collection (ATCC). The cells were cultured at 37° C. in the presence of 5% CO2 in RPMI 1640 medium containing 10% fetal bovine serum and 1% penicillin/streptomycin. To the MV4; 11 cells was added each test compound to adjust the final concentration to 1 μmol/L, and the cells were cultured at 37° C. in the presence of 5% CO2 for 20 to 24 hours. After the incubation, the total RNA was extracted from the cells with RNeasy™ Mini Kit (QIAGEN, 74106), and cDNA was synthesized with Superscript™ VILO™ cDNA Synthesis Kit (Invitrogen, #11754250). By using TaqMan™ Gene Expression Master Mix (Applied Biosystems, 4369016) and TaqMan™ probe (Applied Biosystems), the expression level of mRNA was quantified from the obtained cDNA with 7900HT (Applied biosystems). The mRNA expression level of each obtained gene was fitted with the expression level of mRNA of GAPDH.

[3] = test system: HOXA9 mRNA in MV4; 11 cells; assay: Test 3: inhibition of mRNA transcription, HOXA9; format: cell-based; conditions: Homo sapiens, 20 to 24 hours, fitted with GAPDH, read-out: mRNA at 1 μM (% control) HOXA9
Method: as §3

Chain of Menin-MLL binding (His-Menin1-615 / MLL1-172-FLAG) (O00255 other isoform, or with tags, fused parts or gaps): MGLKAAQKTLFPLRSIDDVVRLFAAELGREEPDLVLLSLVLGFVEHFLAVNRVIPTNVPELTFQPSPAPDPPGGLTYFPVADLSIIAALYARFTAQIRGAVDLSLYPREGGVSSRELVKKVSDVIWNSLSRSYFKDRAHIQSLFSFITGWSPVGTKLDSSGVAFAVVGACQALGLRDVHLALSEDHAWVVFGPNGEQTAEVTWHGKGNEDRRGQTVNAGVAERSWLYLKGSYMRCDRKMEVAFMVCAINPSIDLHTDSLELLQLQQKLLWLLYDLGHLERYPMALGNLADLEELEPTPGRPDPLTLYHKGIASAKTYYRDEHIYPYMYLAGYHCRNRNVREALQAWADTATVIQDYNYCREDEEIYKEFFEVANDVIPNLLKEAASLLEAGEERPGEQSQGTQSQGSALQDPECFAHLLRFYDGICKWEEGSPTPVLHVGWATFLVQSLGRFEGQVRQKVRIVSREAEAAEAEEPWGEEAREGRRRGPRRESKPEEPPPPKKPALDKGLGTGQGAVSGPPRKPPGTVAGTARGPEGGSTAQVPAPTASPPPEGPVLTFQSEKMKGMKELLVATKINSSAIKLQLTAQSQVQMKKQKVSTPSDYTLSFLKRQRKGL

IC50 [1] | IC50 (RS4; 11 cells) | IC50 (MOLM-13 cells) | Menin-MLL binding inhibition activity (in words) [1] | SMILES | mrna remaining at 1 µM [2] | mrna remaining at 1 µM [3] | cell proliferation inhibition activity (in words, good) (RS4; 11 cells) | cell proliferation inhibitory activity (in words, potent) (RS4; 11 cells) | mRNA transcription inhibition activity (in words) [2]
140 nM | 780 nM | 1700 nM | – | O=C([C@H]1N[C@H]2CC[C@@H]1C(F)(F)C2)N1CC2(C1)CN(c1c(C(F)(F)F)cnc3sc(CC(F)(F)F)cc13)C2 [Example 4, [(1S,3S,4S)-5,5-difluoro-2-azabicyclo[2.2.2]octan-3-yl]{6-[2-(2,2,2-trifluoroethyl)-5-(trifluoromethyl)thieno[2,3-b]pyridin-4-yl]-2,6-diazaspiro[3.3]heptan-2-yl}methanone] | 65.4% | 60% | – | – | –
27.3 nM | 580 nM | 830 nM | – | O=C([C@H]1N[C@H]2CC[C@@H]1C[C@@H]2O)N1CC2(C1)CN(c1c(C(F)(F)F)cnc3sc(CC(F)(F)F)cc13)C2 [Example 6, [(1S,3S,4R,6S)-6-hydroxy-2-azabicyclo[2.2.2]octan-3-yl]{6-[2-(2,2,2-trifluoroethyl)-5-(trifluoromethyl)thieno[2,3-b]pyridin-4-yl]-2,6-diazaspiro[3.3]heptan-2-yl}methanone] | 51.3% | 54.3% | – | – | –
635 nM | 330 nM | 1100 nM | – | O=C1C[C@@H]2CC[C@H]1[C@@H](C(=O)N1CC3(C1)CN(c1c(C(F)(F)F)cnc4sc(CC(F)(F)F)cc14)C3)N2 [Example 8, (1S,3S,4S)-3-{6-[2-(2,2,2-trifluoroethyl)-5-(trifluoromethyl)thieno[2,3-b]pyridin-4-yl]-2,6-diazaspiro[3.3]heptane-2-carbonyl}-2-azabicyclo[2.2.2]octan-5-one] | 82.9% | 79.3% | – | – | –
343 nM | 810 nM | 2100 nM | – | O=C([C@H]1N[C@H]2CC[C@@H]1C[C@H]2F)N1CC2(C1)CN(c1c(C(F)(F)F)cnc3sc(CC(F)(F)F)cc13)C2 [Example 10, [(1S,3S,4R,6R)-6-fluoro-2-azabicyclo[2.2.2]octan-3-yl]{6-[2-(2,2,2-trifluoroethyl)-5-(trifluoromethyl)thieno[2,3-b]pyridin-4-yl]-2,6-diazaspiro[3.3]heptan-2-yl}methanone] | 68.8% | 69.5% | – | – | –
53.9 nM | 630 nM | 730 nM | – | C=CCO[C@H]1C[C@H]2CC[C@@H]1N[C@@H]2C(=O)N1CC2(C1)CN(c1c(C(F)(F)F)cnc3sc(CC(F)(F)F)cc13)C2 [Example 11, {(1S,3S,4R,6S)-6-[(prop-2-en-1-yl)oxy]-2-azabicyclo[2.2.2]octan-3-yl}{6-[2-(2,2,2-trifluoroethyl)-5-(trifluoromethyl)thieno[2,3-b]pyridin-4-yl]-2,6-diazaspiro[3.3]heptan-2-yl}methanone] | 60.7% | 64.5% | – | – | –
134 nM | 620 nM | 810 nM | – | O=C([C@H]1N[C@H]2CC[C@@H]1C[C@@H]2OCc1ccccc1)N1CC2(C1)CN(c1c(C(F)(F)F)cnc3sc(CC(F)(F)F)cc13)C2 [Example 13, [(1S,3S,4R,6S)-6-(benzyloxy)-2-azabicyclo[2.2.2]octan-3-yl]{6-[2-(2,2,2-trifluoroethyl)-5-(trifluoromethyl)thieno[2,3-b]pyridin-4-yl]-2,6-diazaspiro[3.3]heptan-2-yl}methanone] | 57.3% | 63% | – | – | –
11.4 nM | 270 nM | 220 nM | potent | N#Cc1cnc2sc(CC(F)(F)F)cc2c1N1CC2(CN(C(=O)[C@H]3NC4CCC3CC4)C2)C1 [Example 20, 4-{6-[(3S)-2-azabicyclo[2.2.2]octane-3-carbonyl]-2,6-diazaspiro[3.3]heptan-2-yl}-2-(2,2,2-trifluoroethyl)thieno[2,3-b]pyridine-5-carbonitrile] | 41.8% | 59.3% | good | potent | showed the mRNA transcription inhibition activity
8.4 nM | 270 nM | 240 nM | potent | N#Cc1cnc2sc(CC(F)(F)F)cc2c1N1CC2(CN(C(=O)[C@H]3N[C@@H]4CC[C@H]3C4)C2)C1 [Example 21, 4-{6-[(1R,3S,4S)-2-azabicyclo[2.2.1]heptane-3-carbonyl]-2,6-diazaspiro[3.3]heptan-2-yl}-2-(2,2,2-trifluoroethyl)thieno[2,3-b]pyridine-5-carbonitrile] | 40.9% | 52.1% | good | potent | showed the mRNA transcription inhibition activity
90.2 nM | 690 nM | 2200 nM | – | N#Cc1cnc2sc(CC(F)(F)F)cc2c1N1CC2(CN(C(=O)[C@H]3N[C@H]4CC[C@@H]3C(=O)C4)C2)C1 [Example 25, 4-{6-[(1S,3S,4S)-5-oxo-2-azabicyclo[2.2.2]octane-3-carbonyl]-2,6-diazaspiro[3.3]heptan-2-yl}-2-(2,2,2-trifluoroethyl)thieno[2,3-b]pyridine-5-carbonitrile] | – | – | – | – | –
44.7 nM | 290 nM | 680 nM | potent | O=C([C@H]1NC2CCC1CC2)N1CC2(C1)CN(c1c(C(F)F)cnc3sc(CC(F)(F)F)cc13)C2 [Example 26, [(3S)-2-azabicyclo[2.2.2]octan-3-yl]{6-[5-(difluoromethyl)-2-(2,2,2-trifluoroethyl)thieno[2,3-b]pyridin-4-yl]-2,6-diazaspiro[3.3]heptan-2-yl}methanone] | 41.4% | 57.6% | good | – | showed the mRNA transcription inhibition activity
26 nM | 560 nM | 940 nM | potent | O=C([C@H]1N[C@@H]2CC[C@H]1C2)N1CC2(C1)CN(c1c(C(F)F)cnc3sc(CC(F)(F)F)cc13)C2 [Example 27, [(1R,3S,4S)-2-azabicyclo[2.2.1]heptan-3-yl]{6-[5-(difluoromethyl)-2-(2,2,2-trifluoroethyl)thieno[2,3-b]pyridin-4-yl]-2,6-diazaspiro[3.3]heptan-2-yl}methanone] | 48.9% | 53.5% | good | – | showed the mRNA transcription inhibition activity
